Assay results published in patent US10954214B2 (Janssen Pharmaceutica NV, priority 2016, dated 2021).

Tests used:
[1] = tested on: IL6 secretion by TMD8 ABC-DLBCL cells; test: Human IL6 Mesoscale assay (TMD-8); assay type: cell-based; conditions: Homo sapiens, TMD8; TMD-8 cells, 24 h
Procedure: (§1) NFKB signaling regulates the secretion of multiple cytokines, including IL6 and IL10. Secretion of the cytokines IL6 and IL10 by TMD8 or OCI-LY3 ABC-DLBCL cells was measured using a mesoscale assay. Inhibition of NFKB signaling by MALT1 or BTK inhibitors results in a decrease of IL6/10 secretion.
(§2) TMD8 or OCI-LY3 cells were propagated in RPMI-1640 (Sigma Aldrich) supplemented with 10% fetal bovine serum (HyClone), 1 mM sodium pyruvate (Invitrogen), 2 mM L-glutamine (Sigma Aldrich) and 1% PenStrep (Sigma Aldrich). Cell passage number should not exceed 30. Cells should be kept between 0.5-2.5 million cells per mL during culturing and cells should be supplemented every 2-3 days with fresh 50 μM beta-mercaptoenthanol. No beta-mercaptoethanol was used during the mesoscale assay.
(§3) For the Mesoscale assay, 100,000 TMD8 or OCI-LY3 cells were seeded per well into black-colored 96-well plates with clear bottom (Corning #3904) and test compounds were added in 9 dilution steps (1:2) ranging from 15 μM to 58.6 nM (final DMSO concentration 0.3%). DMSO control wells were used to determine the maximum signal (High Control (HC)). Treatment with the BTK inhibitor RN486 in a dose range from 30 nM to 131 pM (9 dilutions of 1:2) served as a positive control for NFKB pathway inhibition and was used to determine the maximum inhibition (Low Control (LC)). Compounds and cells were incubated for 24 h at 37° C. and 5% CO2 (assay volume is 150 μL). After 24 h of incubation 50 μL of the supernatant was transferred to a MSD plate (V-Plex Proinflammation Panel 1 (human) kit, Mesoscale (MSD)) and incubated for 2 h with vigorous shaking (600 rpm) at room temperature. Following incubation, plates were washed 3× with PBS+0.05% Tween-20 and 25 μL detection antibody solution (IL6 & IL10 antibodies in diluent 3 (MSD)) was added per well followed by 2 h of incubation with vigorous shaking (600 rpm) at room temperature. After 3× washes with PBS+0.05% Tween-20, plates were incubated with 150 μL 2× Read Buffer T and read on SECTOR imager.

[2] = tested on: IL10 secretion by TMD8 ABC-DLBCL cells; test: Human IL10 Mesoscale assay (TMD-8); assay type: cell-based; conditions: Homo sapiens, TMD8; TMD-8 cells, 24 h
Procedure: as §1, §2, §3

[3] = target: full-length MALT1 protein (Strep-MALT1(1-824)-His) (Homo sapiens (Human), UniProt Q9UDY8); test: MALT1 Biochemical Protease Assay (Ac-LRSR-AMC substrate); conditions: 10 nM FL MALT1, 200 μM Ac-LRSR-AMC, 4 h at RT; read-out: MALT1_Biochemical activity (Ac-LRSR-amc) IC50
Procedure: The tetrapeptide LRSR is coupled to AMC (7-amino-4-methylcoumarin) and provides a quenched, fluorescent substrate for the MALT1 protease (SM Biochemicals). […] Test compound concentrations ranged from 30 μM to 0.5 nM using 11 dilution steps (1:3). Background signal was measured from control wells containing assay buffer without enzyme which functions as low control (LC). High control (HC) values were generated using the reaction with enzyme but no compound treatment. Compounds were pre-incubated with MALT1 enzyme for 50 minutes at RT. […] The reaction was subsequently incubated for 4 h at RT and fluorescence was measured.
LC=Median of the low control values
An estimate of the slope of the plot in terms of the Hill coefficient was also obtained. IC50 Calculation:
[formula] With • UB=upper bound • LB=lower bound Used in “Lexis Dose Response Curve Fitting” Version 1.0.

full-length MALT1 protein (Strep-MALT1(1-824)-His), sequence (Q9UDY8 whole entry): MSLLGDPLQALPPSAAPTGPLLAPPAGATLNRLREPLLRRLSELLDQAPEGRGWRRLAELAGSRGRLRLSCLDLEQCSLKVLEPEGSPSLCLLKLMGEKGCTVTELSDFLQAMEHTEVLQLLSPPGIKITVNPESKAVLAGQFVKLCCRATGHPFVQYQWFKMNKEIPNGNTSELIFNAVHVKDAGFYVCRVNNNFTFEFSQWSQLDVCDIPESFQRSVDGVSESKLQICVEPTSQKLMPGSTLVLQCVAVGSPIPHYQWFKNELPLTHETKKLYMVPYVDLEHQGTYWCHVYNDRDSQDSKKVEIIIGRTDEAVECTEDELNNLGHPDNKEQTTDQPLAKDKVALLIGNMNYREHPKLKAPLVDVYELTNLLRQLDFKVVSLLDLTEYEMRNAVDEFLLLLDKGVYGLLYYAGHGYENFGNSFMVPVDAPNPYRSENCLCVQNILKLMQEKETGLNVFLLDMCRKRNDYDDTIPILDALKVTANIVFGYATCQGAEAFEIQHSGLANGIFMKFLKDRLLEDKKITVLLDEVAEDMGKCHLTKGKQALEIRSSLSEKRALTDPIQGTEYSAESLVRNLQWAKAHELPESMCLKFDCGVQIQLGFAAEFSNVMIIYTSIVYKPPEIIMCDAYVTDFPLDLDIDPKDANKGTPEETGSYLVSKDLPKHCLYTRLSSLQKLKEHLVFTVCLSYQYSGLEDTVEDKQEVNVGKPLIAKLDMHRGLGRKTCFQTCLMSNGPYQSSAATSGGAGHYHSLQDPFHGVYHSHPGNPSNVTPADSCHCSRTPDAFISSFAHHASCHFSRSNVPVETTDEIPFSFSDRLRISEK

SMILES	IC50 [1] [nM]	IC50 [2] [nM]	IC50 [3] [nM]
O=C(Nc1cnc(-n2nccn2)c(Cl)c1)c1cnn(-c2cnc(C3CCN3)c3ccccc23)c1C(F)(F)F (stereo not drawn) [Cpd 379, 1-(1-(azetidin-2-yl)isoquinolin-4-yl)-N-(5-chloro-6-(2H-1,2,3-triazol-2-yl)pyridin-3-yl)-5-(trifluoromethyl)-1H-pyrazole-4-carboxamide]	21	15	501
N#Cc1cc(NC(=O)c2cnn(-c3cccc4ncccc34)c2C(F)(F)F)ccc1C(=O)O [Cpd 237, 2-cyano-4-(1-(quinolin-5-yl)-5-(trifluoromethyl)-1H-pyrazole-4-carboxamido)benzoic acid]	275	182	676
COc1cc(NC(=O)c2cnn(-c3cccc4ncccc34)c2C(F)(F)F)cnc1-n1ccnn1 [Cpd 235, N-(5-methoxy-6-(1H-1,2,3-triazol-1-yl)pyridin-3-yl)-1-(quinolin-5-yl)-5-(trifluoromethyl)-1H-pyrazole-4-carboxamide]	708	1120	776
NC(=O)c1cc(-n2ncc(C(=O)Nc3cnc(-n4nccn4)c(Cl)c3)c2C(F)(F)F)c2ccccc2n1 [Cpd 386, 4-(4-((5-chloro-6-(2H-1,2,3-triazol-2-yl)pyridin-3-yl)carbamoyl)-5-(trifluoromethyl)-1H-pyrazol-1-yl)quinoline-2-carboxamide]	56	21	107
Cc1cc(NC(=O)c2cnn(-c3cccc4c(=O)[nH]ccc34)c2C(F)(F)F)c(C)nc1-n1nccn1 [Cpd 161, N-(2,5-dimethyl-6-(2H-1,2,3-triazol-2-yl)pyridin-3-yl)-1-(1-oxo-1,2-dihydroisoquinolin-5-yl)-5-(trifluoromethyl)-1H-pyrazole-4-carboxamide]	> 15100	> 15100	282
O=C1CO[C@@H](c2ncc(-n3ncc(C(=O)Nc4cnc(-n5nccn5)c(Cl)c4)c3C(F)(F)F)c3ccccc23)C1 (single isomer, unassigned) [Cpd 438, (*R)—N-(5-chloro-6-(2H-1,2,3-triazol-2-yl)pyridin-3-yl)-1-(1-(4-oxotetrahydrofuran-2-yl)isoquinolin-4-yl)-5-(trifluoromethyl)-1H-pyrazole-4-carboxamide]	6610	2140	71
Cn1ncc2c(-n3ncc(C(=O)Nc4cnc(-n5nccn5)c(C#N)c4)c3C(F)(F)F)cccc21 [Cpd 239, N-(5-cyano-6-(2H-1,2,3-triazol-2-yl)pyridin-3-yl)-1-(1-methyl-1H-indazol-4-yl)-5-(trifluoromethyl)-1H-pyrazole-4-carboxamide]	324	562	661
N#Cc1cc(NC(=O)c2cnn(-c3nccc4occc34)c2C(F)(F)F)cnc1-n1nccn1 [Cpd 94, N-(5-cyano-6-(2H-1,2,3-triazol-2-yl)pyridin-3-yl)-1-(furo[3,2-c]pyridin-4-yl)-5-(trifluoromethyl)-1H-pyrazole-4-carboxamide]	89	105	19
O=C(Nc1cnc(-n2nccn2)c(Cl)c1)c1cnn(-c2cnc(C3CNC3)c3ccccc23)c1C(F)(F)F [Cpd 403, 1-(1-(azetidin-3-yl)isoquinolin-4-yl)-N-(5-chloro-6-(2H-1,2,3-triazol-2-yl)pyridin-3-yl)-5-(trifluoromethyl)-1H-pyrazole-4-carboxamide]	105	112	871
O=C(Nc1cnc(-n2nccn2)c(Cl)c1)c1cnn(-c2cccc3snnc23)c1C(F)(F)F [Cpd 231, 1-(benzo[d][1,2,3]thiadiazol-4-yl)-N-(5-chloro-6-(2H-1,2,3-triazol-2-yl)pyridin-3-yl)-5-(trifluoromethyl)-1H-pyrazole-4-carboxamide]	724	851	891
COC(=O)c1cn(-c2ncc(NC(=O)c3cnn(-c4cccc5ncccc45)c3C(F)(F)F)cc2Cl)nn1 [Cpd 249, methyl 1-(3-chloro-5-(1-(quinolin-5-yl)-5-(trifluoromethyl)-1H-pyrazole-4-carboxamido)pyridin-2-yl)-1H-1,2,3-triazole-4-carboxylate]	148	148	331
Cc1nc2cccc(-n3ncc(C(=O)Nc4cnc(-n5nccn5)c(C#N)c4)c3C(F)(F)F)c2s1 [Cpd 247, N-(5-cyano-6-(2H-1,2,3-triazol-2-yl)pyridin-3-yl)-1-(2-methylbenzo[d]thiazol-7-yl)-5-(trifluoromethyl)-1H-pyrazole-4-carboxamide]	> 1510	1780	347
O=C(Nc1cnc2[nH]ncc2c1)c1cnn(-c2cccc3ncccc23)c1C(F)(F)F [Cpd 229, N-(1H-pyrazolo[3,4-b]pyridin-5-yl)-1-(quinolin-5-yl)-5-(trifluoromethyl)-1H-pyrazole-4-carboxamide]	912	331	1120
O=C(Nc1cnc(-n2nccn2)c(Cl)c1)c1cnn(-c2cccc3nc(C(F)F)ccc23)c1C(F)(F)F [Cpd 395, N-(5-chloro-6-(2H-1,2,3-triazol-2-yl)pyridin-3-yl)-1-(2-(difluoromethyl)quinolin-5-yl)-5-(trifluoromethyl)-1H-pyrazole-4-carboxamide]	72	28	3470
Cc1nc(-n2cccn2)c(Cl)cc1NC(=O)c1cnn(-c2cccc3c(=O)[nH]ccc23)c1C(F)(F)F [Cpd 170, N-(5-chloro-2-methyl-6-(1H-pyrazol-1-yl)pyridin-3-yl)-1-(1-oxo-1,2-dihydroisoquinolin-5-yl)-5-(trifluoromethyl)-1H-pyrazole-4-carboxamide]	339	112	135
Cc1cc(-n2nccn2)c(Cl)cc1NC(=O)c1cnn(-c2cccc3c(=O)[nH]ccc23)c1C(F)(F)F [Cpd 171, N-(5-chloro-2-methyl-4-(2H-1,2,3-triazol-2-yl)phenyl)-1-(1-oxo-1,2-dihydroisoquinolin-5-yl)-5-(trifluoromethyl)-1H-pyrazole-4-carboxamide]	91	60	71
O=C(Nc1cnc(-n2nccn2)c(Cl)c1)c1cnn(-c2c[n+]([O-])cc3ccccc23)c1C(F)(F)F [Cpd 406, 4-(4-((5-chloro-6-(2H-1,2,3-triazol-2-yl)pyridin-3-yl)carbamoyl)-5-(trifluoromethyl)-1H-pyrazol-1-yl)isoquinoline 2-oxide]	224	200	76
O=C(Nc1ccnc(C(F)(F)F)c1)c1cnn(-c2ccc(F)c3nccn23)c1C(F)(F)F [Cpd 209, 1-(8-fluoroimidazo[1,2-a]pyridin-5-yl)-5-(trifluoromethyl)-N-(2-(trifluoromethyl)pyridin-4-yl)-1H-pyrazole-4-carboxamide]	1480	1120	224
O=C(O)c1cnn(-c2ccc(NC(=O)c3cnn(-c4cccc5ncccc45)c3C(F)(F)F)cc2Cl)n1 [Cpd 228, 2-(2-chloro-4-(1-(quinolin-5-yl)-5-(trifluoromethyl)-1H-pyrazole-4-carboxamido)phenyl)-2H-1,2,3-triazole-4-carboxylic acid]	692	813	1120
Cc1nc(-n2nccn2)c(Br)cc1NC(=O)c1cnn(-c2cccc3c(=O)[nH]ccc23)c1C(F)(F)F [Cpd 185, N-(5-bromo-2-methyl-6-(2H-1,2,3-triazol-2-yl)pyridin-3-yl)-1-(1-oxo-1,2-dihydroisoquinolin-5-yl)-5-(trifluoromethyl)-1H-pyrazole-4-carboxamide]	186	162	18
